Results from PubChem BioAssay AID1259407 (Chemical Carcinogenesis Research Information System (CCRIS), 2018).
Calls of active or inactive are those of the source. How the calls were made is not given here.

System: CCRIS mutagenicity, Ames/micronucleus/aberration tests
Test: CCRIS mutagenicity studies
[1] = Test System: AMES SALMONELLA TYPHIMURIUM, Strain/Indicator: TA98, Metabolic Activation: NONE, Method: STANDARD PLATE
[2] = Test System: AMES SALMONELLA TYPHIMURIUM, Strain/Indicator: TA100, Metabolic Activation: NONE, Method: STANDARD PLATE

Measured: mutagenic call

CC(C)OS(C)(=O)=O
inactive: Test System: AMES SALMONELLA TYPHIMURIUM, Strain/Indicator: TA98, Metabolic Activation: RAT, LIVER, S-9, Method: STANDARD PLATE inactive; negative
active: End Point: IN VITRO MICRONUCLEUS, Test System: MOUSE LYMPHOMA L5178Y CELLS, Metabolic Activation: NONE active; positive | End Point: IN VITRO MICRONUCLEUS, Test System: MOUSE LYMPHOMA L5178Y CELLS, Metabolic Activation: RAT, LIVER, S-9 active; positive | [1] active; positive | Test System: AMES SALMONELLA TYPHIMURIUM, Strain/Indicator: TA100, Metabolic Activation: NONE, Method: PREINCUBATION active; positive | [2] active; positive | Test System: AMES SALMONELLA TYPHIMURIUM, Strain/Indicator: TA100, Metabolic Activation: RAT, LIVER, S-9, Method: STANDARD PLATE active; positive | Test System: AMES SALMONELLA TYPHIMURIUM, Strain/Indicator: TA1535, Metabolic Activation: NONE, Method: PREINCUBATION active; positive | Test System: CHINESE HAMSTER V-79, Strain/Indicator: V-79/6-THIOGUANINE, Metabolic Activation: NONE, Method: FLASK ASSAY active; positive | Test System: CHO/HGPRT, Strain/Indicator: CHO-K1-BH4, Metabolic Activation: NONE, Method: STANDARD PLATE active; positive

N#CCCNCCC#N
inactive: Test System: AMES SALMONELLA TYPHIMURIUM, Strain/Indicator: TA98, Metabolic Activation: HAMSTER, LIVER, S-9, AROCLOR 1254, Method: STANDARD PLATE inactive; negative | [1] inactive; negative | Test System: AMES SALMONELLA TYPHIMURIUM, Strain/Indicator: TA98, Metabolic Activation: RAT, LIVER, S-9, AROCLOR 1254, Method: STANDARD PLATE inactive; negative | Test System: AMES SALMONELLA TYPHIMURIUM, Strain/Indicator: TA100, Metabolic Activation: HAMSTER, LIVER, S-9, AROCLOR 1254, Method: STANDARD PLATE inactive; negative | [2] inactive; negative | Test System: AMES SALMONELLA TYPHIMURIUM, Strain/Indicator: TA100, Metabolic Activation: RAT, LIVER, S-9, AROCLOR 1254, Method: STANDARD PLATE inactive; negative | Test System: AMES SALMONELLA TYPHIMURIUM, Strain/Indicator: TA1535, Metabolic Activation: HAMSTER, LIVER, S-9, AROCLOR 1254, Method: STANDARD PLATE inactive; negative | Test System: AMES SALMONELLA TYPHIMURIUM, Strain/Indicator: TA1535, Metabolic Activation: NONE, Method: STANDARD PLATE inactive; negative | Test System: AMES SALMONELLA TYPHIMURIUM, Strain/Indicator: TA1535, Metabolic Activation: RAT, LIVER, S-9, AROCLOR 1254, Method: STANDARD PLATE inactive; negative | Test System: AMES SALMONELLA TYPHIMURIUM, Strain/Indicator: TA1537, Metabolic Activation: HAMSTER, LIVER, S-9, AROCLOR 1254, Method: STANDARD PLATE inactive; negative | Test System: AMES SALMONELLA TYPHIMURIUM, Strain/Indicator: TA1537, Metabolic Activation: NONE, Method: STANDARD PLATE inactive; negative | Test System: AMES SALMONELLA TYPHIMURIUM, Strain/Indicator: TA1537, Metabolic Activation: RAT, LIVER, S-9, AROCLOR 1254, Method: STANDARD PLATE inactive; negative | Test System: AMES SALMONELLA TYPHIMURIUM, Strain/Indicator: TA1538, Metabolic Activation: HAMSTER, LIVER, S-9, AROCLOR 1254, Method: STANDARD PLATE inactive; negative | Test System: AMES SALMONELLA TYPHIMURIUM, Strain/Indicator: TA1538, Metabolic Activation: NONE, Method: STANDARD PLATE inactive; negative | Test System: AMES SALMONELLA TYPHIMURIUM, Strain/Indicator: TA1538, Metabolic Activation: RAT, LIVER, S-9, AROCLOR 1254, Method: STANDARD PLATE inactive; negative | Test System: MOUSE LYMPHOMA, Strain/Indicator: L5178Y (TK+/TK-), Metabolic Activation: NONE, Method: SUSPENSION/PLATE inactive; negative. reevaluation of results: negative
active: Test System: MOUSE LYMPHOMA, Strain/Indicator: L5178Y (TK+/TK-), Metabolic Activation: RAT, LIVER, S-9, AROCLOR 1254, Method: SUSPENSION/PLATE active; positive. reevaluation of results: equivocal

COc1cc(O)c2c(c1)C1=C[C@H](O)[C@@H](O)C[C@]1(C)OC2=O
inactive: End Point: Ames Salmonella typhimurium, Strain/Indicator: TA97, Metabolic Activation: None, Method: Standard plate inactive; negative. nitrosation did not increase mutagenicity | End Point: Ames Salmonella typhimurium, Strain/Indicator: TA97, Metabolic Activation: Rat, Liver, S-9, Aroclor 1254 (10%), Method: Standard plate inactive; negative. nitrosation did not increase mutagenicity | End Point: Ames Salmonella typhimurium, Strain/Indicator: TA102, Metabolic Activation: None, Method: Standard plate inactive; negative. nitrosation did not increase mutagenicity | End Point: Ames Salmonella typhimurium, Strain/Indicator: TA102, Metabolic Activation: Rat, Liver, S-9, Aroclor 1254 (10%), Method: Standard plate inactive; negative. nitrosation did not increase mutagenicity | End Point: Ames Salmonella typhimurium, Strain/Indicator: TA104, Metabolic Activation: None, Method: Standard plate inactive; negative. nitrosation did not increase mutagenicity | End Point: Ames Salmonella typhimurium, Strain/Indicator: TA104, Metabolic Activation: Rat, Liver, S-9, Aroclor 1254 (10%), Method: Standard plate inactive; negative. nitrosation did not increase mutagenicity | [1] inactive; negative | Test System: AMES SALMONELLA TYPHIMURIUM, Strain/Indicator: TA98, Metabolic Activation: RAT LIVER S-9, AROCLOR 1254, Method: STANDARD PLATE inactive; negative | [2] inactive; negative | Test System: AMES SALMONELLA TYPHIMURIUM, Strain/Indicator: TA100, Metabolic Activation: RAT LIVER S-9, AROCLOR 1254, Method: STANDARD PLATE inactive; negative
